One assay deals with Recombinant human TRKA (Homo sapiens (Human), UniProt P04629). As to the kind of experiment: In vitro activity test on TRKA kinase (HTRF kinEASE TK). Type of assay: biochemical. The conditions noted are these: 14.68 μM ATP, 40 min, room temperature. On the procedure: (§1) Recombinant human TRKA, TRKB, TRKC proteins were purchased from Carna Biosciences. HTRF kinEASE TK kit was purchased from Cisbio Bioassays. Synergy Neo 2 of Biotek was used to read the plate.
(§2) The tested compounds were subjected to 3-fold serial dilution to reach a final concentration of 1 μM to 0.05 nM (10 concentrations), duplicates for each concentration; and the DMSO concentration in the detection reaction was 1%.
0.2 ng/μL TRKA protein kinase, 1 μM TK Substrate-biotin polypeptide substrate, 14.68 μM ATP, 1×enzymatic buffer, 5 mM MgCl2, and 1 mM DTT. The assay plate was White Proxiplate384-Plus plate (PerkinElmer), and the reaction was incubated at room temperature for 40 min, and the assay volume was 10 μL.
(§3) 10 μL of detection reagent (containing 0.125 μM SA-XL665 and 5 μL 1×TK-Antibody) was added to the plate and incubated overnight at room temperature. Synergy Neo 2 was used to read the plate.
(§4) The 665/620 Ratio was converted according to the following formula into inhibition rate (%)=(1−Ratiotest/Ratiomax)×100%. Ratiomax was the value of positive controls without tested compound, and Ratiotest was the value of each concentration of different compounds. IC50 (nM) data was obtained by 4 parameter curve fitting (see Table 1).

The next assay addresses Recombinant human TRKB (Homo sapiens (Human), UniProt Q16620). Description: In vitro activity test on TRKB kinase (HTRF kinEASE TK). The conditions noted are these: 4.77 μM ATP, 50 min, room temperature. In kind it is biochemical. On the procedure: as §1, §2
0.037 ng/μL TRKB protein kinase, 1 μM TK Substrate-biotin polypeptide substrate, 4.77 μM ATP, 1× enzymatic buffer, 5 mM MgCl2, 1 mM MnCl2 and 1 mM DTT. The assay plate was White Proxiplate 384-Plus plate (PerkinElmer), the reaction was incubated at room temperature for 50 min, and the assay volume was 10 μL.
as §3, §4
For orientation: In TR-FRET formats the signal depends on donor and acceptor labels being close together.

The next assay addresses Recombinant human TRKC (Homo sapiens (Human), UniProt Q16288). Description: In vitro activity test on TRKC kinase (HTRF kinEASE TK). In kind it is biochemical. As to conditions: 25.64 μM ATP, 40 min, room temperature. On the procedure:
as §1, §2
0.037 ng/μL TRKC protein kinase, 1 μM TK Substrate-biotin polypeptide substrate, 25.64 μM ATP, 1× enzymatic buffer, 5 mM MgCl2, and 1 mM DTT. The detection plate was White Proxiplate 384-Plus plate (PerkinElmer), the reaction was incubated at room temperature for 40 min, and the assay volume was 10 μL.
as §3, §4

The test system of the next assay is KM12-LUC cells. Description: KM12-LUC cell proliferation experiment (CellTiter-Glo). Type of assay: cell-based. As to conditions: human colon cancer cell line with TPM3-NTRK1 fusion, 72 hours. As for the experimental part:
Human colon cancer cell line KM12-LUC (LUC, stably expressing Luciferase) expressing TPM3-NTRK1 fusion gene was used to evaluate cellular activity of the compounds. The TRK fusion gene in KM12-LUC cells makes the sustained activation of TRK and the downstream signaling pathways associated with cell proliferation such as MAPK-ERK, PI3K-AKT, etc independent of the stimulation of extracellular growth factor. […] The method was as follows: On the first day, the cells were seeded into 384-well plates at 2000 cells/well; on the second day, different concentrations of test compounds were added; and on the 5th day, CellTiter-Glo (Promega) was added to detect cell viability, and the cell proliferation inhibition rate at 72 hours was calculated. Statistical analysis was carried out by PRISM5 and the IC50 of the test compounds was calculated.
(Cellular ATP, detected with luciferase, serves as a proxy for viable cell number.)

The target of assay [1] is recombinant human TRKA (G595R) (Homo sapiens (Human), UniProt P04629, G595R). As to the kind of experiment: In vitro activity test on mutant TRKA (G595R) (HTRF kinEASE TK). Type of assay: biochemical. As to conditions: 4.5 μM ATP, 30 min, room temperature; read-out: TRKA (G595R) IC 50. On the procedure: The recombinant human TRKA (G595R), TRKA (G667C) and TRKC (G623R) proteins were purchased from SignalChem. HTRF kinEASE TK kit was purchased from Cisbio Bioassays. Synergy Neo 2 of Biotek was used to read the plate.
Chain of recombinant human TRKA (G595R) (P04629 33-796 G595R): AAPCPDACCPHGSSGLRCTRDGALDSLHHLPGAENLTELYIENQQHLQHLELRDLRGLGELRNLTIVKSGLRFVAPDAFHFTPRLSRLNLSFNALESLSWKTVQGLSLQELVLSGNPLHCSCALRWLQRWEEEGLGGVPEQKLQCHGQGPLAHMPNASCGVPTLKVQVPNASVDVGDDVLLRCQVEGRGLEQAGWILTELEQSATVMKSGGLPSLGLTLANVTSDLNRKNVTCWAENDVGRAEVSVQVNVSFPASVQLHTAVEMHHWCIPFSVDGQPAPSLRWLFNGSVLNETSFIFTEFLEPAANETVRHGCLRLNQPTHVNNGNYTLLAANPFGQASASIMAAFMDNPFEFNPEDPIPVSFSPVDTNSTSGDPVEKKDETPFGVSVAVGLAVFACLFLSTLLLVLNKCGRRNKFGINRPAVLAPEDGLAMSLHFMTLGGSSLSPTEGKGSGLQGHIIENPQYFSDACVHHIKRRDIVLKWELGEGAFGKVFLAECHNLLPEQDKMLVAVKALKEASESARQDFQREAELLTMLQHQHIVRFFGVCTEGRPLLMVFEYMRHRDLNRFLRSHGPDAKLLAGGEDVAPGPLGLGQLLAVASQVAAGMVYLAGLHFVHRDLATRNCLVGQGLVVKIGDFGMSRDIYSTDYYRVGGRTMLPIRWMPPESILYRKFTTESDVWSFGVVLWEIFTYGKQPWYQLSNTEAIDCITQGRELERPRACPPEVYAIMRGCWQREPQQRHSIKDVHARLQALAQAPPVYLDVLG
The tested compounds were subjected to 4-fold serial dilution to reach a final concentration of 1 μM to 0.004 nM (10 concentrates), duplicates for each concentration; and the final concentration of DMSO in the reaction was 1%.
0.12 ng/μL TRKA (G595R) kinase, 1 μM TK Substrate-biotin polypeptide substrate, 4.5 μM ATP, 1× enzymatic buffer, 5 mM MgCl2, and 1 mM DTT. The assay plate was White Proxiplate384-Plus plate (PerkinElmer), and the reaction was incubated at room temperature for 30 min, and the assay volume was 10 μL.
10 μL of detection reagent (containing 0.125 μM SA-XL665 and 5 μL 1×TK-Antibody) was added to the plate and incubated overnight at room temperature, and Synergy Neo 2 was used to read the plate.
The value of 665/620 Ratio minus the value of negative control wells without enzyme, then the obtained value was converted according to the following formula into inhibition rate (%)=(1−Ratiotest/Ratiomax)×100%. Ratiomax was the value of positive controls without tested compound, and Ratiotest was the value of each concentration of different compounds. IC50 (nM) data was obtained by 4 parameter curve fitting (see Table 3).

Chain of Recombinant human TRKA (P04629 33-796): as the sequence (P04629 33-796 G595R) above, with R563G counted along it
Chain of Recombinant human TRKC (Q16288 32-839): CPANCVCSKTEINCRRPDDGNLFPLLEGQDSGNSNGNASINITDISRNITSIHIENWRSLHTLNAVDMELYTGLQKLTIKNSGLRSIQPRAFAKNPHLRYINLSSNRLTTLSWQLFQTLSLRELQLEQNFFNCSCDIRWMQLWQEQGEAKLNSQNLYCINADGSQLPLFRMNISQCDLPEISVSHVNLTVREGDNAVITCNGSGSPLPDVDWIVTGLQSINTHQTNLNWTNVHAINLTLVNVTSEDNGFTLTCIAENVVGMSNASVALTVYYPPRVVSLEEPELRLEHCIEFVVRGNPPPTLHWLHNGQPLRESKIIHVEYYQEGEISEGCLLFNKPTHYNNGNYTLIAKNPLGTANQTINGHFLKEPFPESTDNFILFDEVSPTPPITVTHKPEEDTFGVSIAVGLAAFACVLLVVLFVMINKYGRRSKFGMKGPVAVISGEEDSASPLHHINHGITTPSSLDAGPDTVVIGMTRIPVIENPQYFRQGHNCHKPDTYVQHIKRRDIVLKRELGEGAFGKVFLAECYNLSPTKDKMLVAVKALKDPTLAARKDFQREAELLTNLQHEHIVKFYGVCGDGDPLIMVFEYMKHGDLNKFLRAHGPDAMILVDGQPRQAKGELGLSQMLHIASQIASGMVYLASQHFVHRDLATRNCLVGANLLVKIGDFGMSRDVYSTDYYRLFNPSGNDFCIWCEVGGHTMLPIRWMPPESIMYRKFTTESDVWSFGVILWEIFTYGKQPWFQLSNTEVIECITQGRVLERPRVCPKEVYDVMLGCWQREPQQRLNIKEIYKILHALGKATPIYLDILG
Chain of Recombinant human TRKB (Q16620 32-822): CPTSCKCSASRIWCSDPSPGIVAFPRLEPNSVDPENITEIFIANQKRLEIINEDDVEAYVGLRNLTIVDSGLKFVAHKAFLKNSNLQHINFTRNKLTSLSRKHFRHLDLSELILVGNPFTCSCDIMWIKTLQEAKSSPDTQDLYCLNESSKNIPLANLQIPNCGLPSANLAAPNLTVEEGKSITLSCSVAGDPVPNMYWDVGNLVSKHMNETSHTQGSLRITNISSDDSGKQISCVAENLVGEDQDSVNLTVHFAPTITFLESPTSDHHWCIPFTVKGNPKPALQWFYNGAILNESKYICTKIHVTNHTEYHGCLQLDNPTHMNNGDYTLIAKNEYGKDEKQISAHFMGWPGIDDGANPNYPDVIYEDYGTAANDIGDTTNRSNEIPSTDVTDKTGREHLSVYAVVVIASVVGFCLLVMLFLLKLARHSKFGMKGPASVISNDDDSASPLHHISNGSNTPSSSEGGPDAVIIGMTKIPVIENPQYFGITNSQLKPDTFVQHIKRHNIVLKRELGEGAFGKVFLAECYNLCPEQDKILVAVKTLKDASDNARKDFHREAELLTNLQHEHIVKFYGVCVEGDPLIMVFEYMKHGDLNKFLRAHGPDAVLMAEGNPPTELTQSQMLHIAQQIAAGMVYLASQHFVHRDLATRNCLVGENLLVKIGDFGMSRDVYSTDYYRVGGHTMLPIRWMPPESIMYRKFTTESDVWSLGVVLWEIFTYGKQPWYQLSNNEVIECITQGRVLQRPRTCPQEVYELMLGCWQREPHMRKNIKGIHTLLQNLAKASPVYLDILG

Turning to `Fc1ccc(F)c([C@H]2C[C@H](F)CN2c2n[nH]c3ncc(-c4cnn(CC(F)F)c4)cc23)c1` [Example 30, 5-(1-(2,2-difluoroethyl)-1H-pyrazol-4-yl)-3-((2R,4S)-2-(2,5-difluorophenyl)-4-fluoropyrrolidin-1-yl)-1H-pyrazolo[3,4-b]pyridine], the IC50 at Recombinant human TRKA was less than 1 nM; at Recombinant human TRKB, less than 1 nM; at Recombinant human TRKC it was less than 1 nM; with KM12-LUC cells, less than 10 nM; in assay [1], less than 1 nM.

Take `CC(C)(O)Cn1cc(-c2cnc3[nH]nc(N4C[C@@H](F)C[C@@H]4c4cc(F)ccc4F)c3c2)cn1` [Example 32, 1-(4-(3-((2R,4S)-2-(2,5-difluorophenyl)-4-fluoropyrrolidin-1-yl)-1H-pyrazolo[3,4-b]pyridin-5-yl)-1H-pyrazol-1-yl)-2-methylpropan-2-ol]: the IC50 (on Recombinant human TRKA; on Recombinant human TRKB; on Recombinant human TRKC; with KM12-LUC cells; in assay [1]) was less than 1 nM throughout.

`CN(C)CCn1cc(-c2cnc3[nH]nc(N4C[C@@H](F)C[C@@H]4c4cc(F)ccc4F)c3c2)cn1` [Example 33, 2-(4-(3-((2R,4S)-2-(2,5-difluorophenyl)-4-fluoropyrrolidin-1-yl)-1H-pyrazolo[3,4-b]pyridin-5-yl)-1H-pyrazol-1-yl)-N,N-dimethylethan-1-amine]: the IC50 (at Recombinant human TRKA; on Recombinant human TRKB; on Recombinant human TRKC; in the assay with KM12-LUC cells; in assay [1]) was less than 1 nM throughout.

Regarding `Fc1ccc(F)c([C@H]2C[C@H](F)CN2c2n[nH]c3ncc(-c4cnn(CC(F)(F)F)c4)cc23)c1` [Example 35, 3-((2R,4S)-2-(2,5-difluorophenyl)-4-fluoropyrrolidin-1-yl)-5-(1-(2,2,2-trifluoroethyl)-1H-pyrazol-4-yl)-1H-pyrazolo[3,4-b]pyridine], the IC50 on Recombinant human TRKA was less than 1 nM; at Recombinant human TRKB, less than 1 nM; at Recombinant human TRKC, less than 1 nM; in the assay with KM12-LUC cells it was less than 10 nM; in assay [1], less than 1 nM.

Take `Fc1ccc(F)c([C@H]2C[C@H](F)CN2c2n[nH]c3ncc(-c4ccn(CC(F)F)n4)cc23)c1` [Example 36, 5-(1-(2,2-difluoroethyl)-1H-pyrazol-3-yl)-3-((2R,4S)-2-(2,5-difluorophenyl)-4-fluoropyrrolidin-1-yl)-1H-pyrazolo[3,4-b]pyridine]: the IC50 is less than 1 nM at Recombinant human TRKA; less than 1 nM on Recombinant human TRKB; less than 1 nM at Recombinant human TRKC; less than 10 nM in the assay with KM12-LUC cells; less than 1 nM in assay [1].

For `COCc1nnc(-c2cnc3[nH]nc(N4C[C@@H](F)C[C@@H]4c4cc(F)ccc4F)c3c2)o1` [Example 37, 2-(3-((2R,4S)-2-(2,5-difluorophenyl)-4-fluoropyrrolidin-1-yl)-1H-pyrazolo[3,4-b]pyridin-5-yl)-5-(methoxymethyl)-1,3,4-oxadiazole], the IC50 is less than 1 nM on Recombinant human TRKA; less than 1 nM at Recombinant human TRKB; less than 1 nM on Recombinant human TRKC; less than 10 nM in the assay with KM12-LUC cells; less than 1 nM in assay [1].

Source of the values: patent US12391687B2, “Five-and-six-membered heterocyclic compound and use thereof as protein receptor kinase inhibitor” (SHANGHAI ENNOVABIO PHARMACEUTICALS CO., LTD., priority 2018, dated 2025).
